Data set [1] addresses T1, Peroxisome proliferator-activated receptor delta (Homo sapiens, UniProt Q03181).
T1 sequence (Q03181 whole entry): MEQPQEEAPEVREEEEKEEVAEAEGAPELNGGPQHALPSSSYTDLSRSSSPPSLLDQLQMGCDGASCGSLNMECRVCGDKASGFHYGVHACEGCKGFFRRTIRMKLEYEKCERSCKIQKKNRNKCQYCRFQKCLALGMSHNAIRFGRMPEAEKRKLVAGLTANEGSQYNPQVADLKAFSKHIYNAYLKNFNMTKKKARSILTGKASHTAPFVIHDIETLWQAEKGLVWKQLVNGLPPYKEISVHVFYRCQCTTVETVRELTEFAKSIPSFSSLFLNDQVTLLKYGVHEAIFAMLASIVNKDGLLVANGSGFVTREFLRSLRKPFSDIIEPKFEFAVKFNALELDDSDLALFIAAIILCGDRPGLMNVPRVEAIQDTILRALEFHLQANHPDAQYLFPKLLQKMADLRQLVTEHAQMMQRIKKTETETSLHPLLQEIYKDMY
Kind of data set: Agonist activity at human PPARdelta measured by dual luciferase reporter gene assay.

In data set [2] the target is T2, Peroxisome proliferator-activated receptor alpha (Homo sapiens, UniProt Q07869).
T2 sequence (Q07869 whole entry): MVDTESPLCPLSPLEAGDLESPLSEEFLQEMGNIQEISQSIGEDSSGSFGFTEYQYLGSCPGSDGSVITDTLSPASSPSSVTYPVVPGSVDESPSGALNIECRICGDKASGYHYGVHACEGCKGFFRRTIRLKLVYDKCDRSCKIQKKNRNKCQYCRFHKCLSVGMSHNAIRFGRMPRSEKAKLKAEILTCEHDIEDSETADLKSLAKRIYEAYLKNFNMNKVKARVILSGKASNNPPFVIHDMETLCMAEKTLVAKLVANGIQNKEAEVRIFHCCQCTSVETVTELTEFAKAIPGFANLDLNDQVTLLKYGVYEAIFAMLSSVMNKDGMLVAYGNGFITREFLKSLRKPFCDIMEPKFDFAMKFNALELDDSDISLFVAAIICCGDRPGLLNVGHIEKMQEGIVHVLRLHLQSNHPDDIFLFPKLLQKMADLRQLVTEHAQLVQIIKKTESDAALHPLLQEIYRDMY
Kind of data set: Agonist activity at human PPARalpha measured by dual luciferase reporter gene assay.

For data set [3], the system named is Mus musculus. The data set is described as follows: Hypolipidemic activity in Triton1339W-induced hyperlipidemic ICR mouse model assessed as reduction in plasma TG level at 80 mg/kg, administered once daily for 5 days. The format is functional, organism-based. The note with it: time 5.0 day.
In data set [4] the target is T3, Peroxisome proliferator-activated receptor gamma (Homo sapiens, UniProt P37231).
T3 sequence (P37231 whole entry): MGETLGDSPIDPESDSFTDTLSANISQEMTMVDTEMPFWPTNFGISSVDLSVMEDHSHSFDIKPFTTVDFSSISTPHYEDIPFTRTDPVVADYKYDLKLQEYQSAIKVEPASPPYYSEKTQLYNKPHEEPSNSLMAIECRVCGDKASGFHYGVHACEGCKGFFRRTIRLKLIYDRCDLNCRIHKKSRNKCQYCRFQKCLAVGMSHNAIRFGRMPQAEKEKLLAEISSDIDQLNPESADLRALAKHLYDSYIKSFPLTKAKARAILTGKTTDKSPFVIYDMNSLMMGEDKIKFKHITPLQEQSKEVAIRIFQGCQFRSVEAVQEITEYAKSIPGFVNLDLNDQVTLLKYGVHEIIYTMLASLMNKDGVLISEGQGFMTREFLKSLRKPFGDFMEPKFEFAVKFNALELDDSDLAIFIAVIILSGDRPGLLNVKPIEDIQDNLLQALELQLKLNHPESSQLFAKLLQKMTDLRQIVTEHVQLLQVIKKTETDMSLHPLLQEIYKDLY
The data set is described as follows: Agonist activity at human PPARgamma measured by dual luciferase reporter gene assay.

Data set [5] has as its system Mus musculus. The data set is described as follows: Hypolipidemic activity in Triton1339W-induced hyperlipidemic ICR mouse model assessed as reduction in plasma TC level at 80 mg/kg, administered once daily for 5 days. The format is functional, organism-based. The note with it: time 5.0 day.
The target of data set [6] is Free fatty acid receptor 1 (Homo sapiens, UniProt O14842). The data set is described as follows: Agonist activity at human FFA1 expressed in CHO cells measured by FLIPR assay. The format is functional, cell-based.
Free fatty acid receptor 1, sequence (O14842 whole entry): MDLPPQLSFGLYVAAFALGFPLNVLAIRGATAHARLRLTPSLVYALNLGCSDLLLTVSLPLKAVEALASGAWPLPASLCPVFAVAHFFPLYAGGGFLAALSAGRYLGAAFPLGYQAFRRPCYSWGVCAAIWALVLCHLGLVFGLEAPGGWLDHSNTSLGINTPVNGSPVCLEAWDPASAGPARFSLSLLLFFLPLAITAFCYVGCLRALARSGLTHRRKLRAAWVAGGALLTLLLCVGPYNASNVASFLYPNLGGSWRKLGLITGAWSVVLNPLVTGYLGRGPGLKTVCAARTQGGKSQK
For data set [7], the system named is Mus musculus. The data set is described as follows: Protection against CCl4-induced liver fibrosis in male C57BL/6 mouse assessed as decrease in collagen area in liver at 250 mg/kg measured by masson staining. The format is functional, organism-based.
In data set [8] the test system is Mus musculus. The data set is described as follows: Protection against CCl4-induced liver fibrosis in male C57BL/6 mouse assessed as decrease in hepatic hydroxyproline content at 250 mg/kg […]. The format is functional, organism-based.
Data set [9] has as its system Mus musculus. Kind of data set: Anti-NASH activity in high-fat/high-sugar diet and CCl4-induced nonalcoholic steatohepatitis male C57BL/6 mouse assessed as decrease in hepatocyte ballooning score at 100 mg/kg, po administered for 4 weeks. The format is functional, organism-based.
Data set [10] has as its system Mus musculus. Kind of data set: Anti-NASH activity in high-fat/high-sugar diet and CCl4-induced nonalcoholic steatohepatitis male C57BL/6 mouse assessed as decrease in disease activity score at 100 mg/kg, po administered for 4 weeks. The format is functional, organism-based.
For data set [11], the system named is Mus musculus. Kind of data set: Anti-NASH activity in high-fat/high-sugar diet and CCl4-induced nonalcoholic steatohepatitis male C57BL/6 mouse assessed as decrease in lobular inflammation score at 100 mg/kg, po administered for 4 weeks. The format is functional, organism-based.
Data set [12] concerns Mus musculus. Kind of data set: Protection against liver fibrosis in high-fat/high-sugar diet and CCl4-induced nonalcoholic steatohepatitis male C57BL/6 mouse assessed as decrease in collagen area at 100 mg/kg, po administered for 4 weeks. The format is functional, organism-based.
The test system of data set [13] is Mus musculus. Kind of data set: Anti-NASH activity in high-fat/high-sugar diet and CCl4-induced nonalcoholic steatohepatitis male C57BL/6 mouse assessed as decrease in F4/80 expression at 100 mg/kg, po administered for 4 weeks. The format is functional, organism-based.
Data set [14] relates to Mus musculus. Kind of data set: Protection against liver fibrosis in high-fat/high-sugar diet and CCl4-induced nonalcoholic steatohepatitis male C57BL/6 mouse assessed as decrease in alpha-SMA expression in liver at 100 mg/kg, po administered for 4 weeks. The format is functional, organism-based.
Data set [15] in a line: Clearance in rat liver microsomes in presence of NADPH measured by LC/MS analysis. The format is ADME, Microsome. The note with it: read-out: CLH.
Data set [16] relates to Mus musculus. Kind of data set: Anti-fibrotic activity in high-fat/high-sugar diet and CCl4-induced nonalcoholic steatohepatitis male C57BL/6 mouse assessed as decrease in COL1A1 mRNA expression at 100 mg/kg, po administered for 4 weeks. The format is functional, organism-based.
The nature of data set [17]: Half-life in rat liver microsomes in presence of NADPH measured by LC/MS analysis. The format is ADME, Microsome.

Each structure is given as a SMILES string. Calls of active or inactive are those of the source. The rule behind the calls is not given here.

Results on 15 compounds are retold here after ChEMBL document CHEMBL5154671 (Eur J Med Chem, 2022).

On to `COc1ccc(/C=C/c2cc(OC)cc(OCc3ccc(OCC(=O)O)c(C)c3)c2)cc1`, for which the EC50 in [1] amounted to 5.16 µM; in [2], 7.6 µM; in data set [4] it was 20.7 µM. For the same compound, the outcome in the data set on Mus musculus [3] and in the data set on Mus musculus [5] was Active.
Consider `O=C(O)COc1ccc(COc2cc(/C=C/c3ccc(OCC4CC4)cc3)cc(OCC3CC3)c2)cc1F`, for which the results for the EC50 in data set [1], in data set [2] and in data set [4] were 8.37 µM, 10.3 µM and 24.5 µM, respectively. In addition, the result in the data set with Mus musculus [3] and in the data set on Mus musculus [5] was Active.
For `O=C(O)COc1ccc(COc2cccc(-c3nc4cc(Cl)ccc4o3)c2)cc1F`, the EC50 in data set [1] turned out to be 20.8 µM; in data set [2], 10.8 µM; in [6] it was 6.8 µM.
Regarding `COc1ccc(/C=C/c2cc(OC)cc(OCc3ccc(OC(C)C(=O)O)c(F)c3)c2)cc1` (stereo not given), the EC50 was 4.5 µM in data set [1], 8.72 µM in data set [2] and 18.2 µM in [4]. Further, the outcome in the data set with Mus musculus [3] and in the data set with Mus musculus [5] was Active.
`CCOc1ccc(/C=C/c2cc(OCC)cc(OCc3ccc(OCC(=O)O)c(F)c3)c2)cc1`: the EC50 stood at 5.7 µM in data set [1], 12.9 µM in data set [2], 22.6 µM in data set [4] and 4.2 µM in data set [6]. For the same compound, the outcome in the data set with Mus musculus [3] and in the data set on Mus musculus [5] was Active.
With `Cc1ccc(=O)n(-c2ccccc2)c1`, the outcome in the data set on Mus musculus [7] and with Mus musculus [8] was Active.
Compound `COc1ccc(-c2cccc(OCc3ccc(OCC(=O)O)c(F)c3)c2)cc1` showed a concentration giving a half-maximal response (EC50) in data set [6] of 0.4 µM. In addition, the result with Mus musculus [5] was Active.
In the case of `COc1ccc(/C=C/c2cc(OC)cc(OCc3ccc(OCC(=O)O)cc3)c2)cc1`, the EC50 in data set [1] was 8.75 µM; in data set [2], 20.8 µM; in [4], 15.6 µM; in data set [6], 10.3 µM. Besides, the result in the data set with Mus musculus [3] and in the data set on Mus musculus [5] was Active.
With `COc1ccc2cc(-c3cccc(OCc4ccc(OCC(=O)O)c(F)c4)c3)ccc2c1`, the EC50 in [1] was 7.8 µM; in data set [2] it was 10.5 µM.
The matching figures for `O=C(O)COc1ccc(COc2cccc(-c3ccc4cc(OCC5CC5)ccc4c3)c2)cc1F`: 7.2 µM and 9.6 µM.
`COc1ccc(/C=C/c2cc(OC)cc(OCc3ccc(OC(C)(C)C(=O)O)c(F)c3)c2)cc1`: the EC50 in data set [1] turned out to be 2.8 µM; in data set [2] it was 2.35 µM; in [4], 20.6 µM. In addition, the result with Mus musculus [3] and in the data set on Mus musculus [5] was Active.
With `O=C(O)COc1ccc(COc2cccc(-c3nc4ccccc4s3)c2)cc1F`, the EC50 is 10.2 µM in [1], 7.8 µM in data set [2] and 2.1 µM in data set [6].
As for `Cc1ccc2[nH]c(-c3cccc(OCCCCCCCC(=O)O)c3)nc2c1`, the EC50 in data set [2] is 6.3 µM; in data set [4], 10.2 µM.
Consider `COc1ccc2ccc(-c3cccc(OCc4ccc(OCC(=O)O)c(F)c4)c3)cc2c1`, for which the EC50 in [1] turned out to be 10.8 µM; in data set [2], 15.6 µM.
Turning to `COc1ccc(/C=C/c2cc(OC)cc(OCCCCCCCC(=O)O)c2)cc1`, the outcome in the data set on Mus musculus [9], in the data set with Mus musculus [10], with Mus musculus [11], in the data set with Mus musculus [12], with Mus musculus [13] and in the data set on Mus musculus [3] was Active. Also, the result in the data set on Mus musculus [14], in the data set on Mus musculus [16] and in the data set on Mus musculus [5] was Active. For the same compound, the EC50 in data set [1] was 6.5 µM; in data set [2] it was 7.5 µM; in data set [4] it was 25.8 µM; in [6] it was 1.8 µM. The microsomal CLint in [15] was 72 µL/min/mg. In data set [17], the half-life was 19.3 min.
